Measurements as given in publication PMC6661766, “Antimicrobial, antioxidant and cytotoxic evaluation of diazenyl chalcones along with insights to mechanism of interaction by molecular docking studies” (BMC Chemistry, 2019).
≈ marks a conversion by molar mass, not a printed value. Where “and” joins values, the source holds several entries; their conditions need not be identical. Equal entries are not always repeated.

Experiments:
[1] = system: B. cereus; assay: Antimicrobial serial tube dilution, MIC and MBC; type: cell-based, Bacillus cereus MTCC 1305; conditions: Bacillus cereus; for MIC: 24 h, read-out: B. cereus MIC; for MBC: read-out: B. cereus MBC
[2] = system: S. typhi; assay: Antimicrobial serial tube dilution, MIC and MBC; type: cell-based, Salmonella typhi MTCC 3216; conditions: Salmonella enterica, TYPHI; for MIC: 24 h, read-out: S. typhi MIC; for MBC: read-out: S. typhi MBC
[3] = system: E. coli; assay: Antimicrobial serial tube dilution, MIC and MBC; type: cell-based, Escherichia coli MTCC 1652; conditions: for MIC / MBC: Escherichia coli; for MIC: 24 h, read-out: E. coli MIC, 24 h at 37 ± 2 °C; for MBC: read-out: E. coli MBC
[4] = system: S. aureus; assay: Antimicrobial serial tube dilution, MIC and MBC; type: cell-based, Staphylococcus aureus MTCC 2901; conditions: Staphylococcus aureus; for MIC: 24 h, read-out: S. aureus MIC; for MBC: read-out: S. aureus MBC
[5] = system: B. subtilis; assay: Antimicrobial serial tube dilution, MIC and MBC; type: cell-based, Bacillus subtilis MTCC 2063; conditions: Bacillus subtilis; for MIC: 24 h, read-out: B. subtilis MIC; for MBC: read-out: B. subtilis MBC
[6] = system: C. albicans; assay: Antimicrobial serial tube dilution, MIC and MFC; type: cell-based, Candida albicans MTCC 227; conditions: Candida albicans; for MIC: 48 h, read-out: C. albicans MIC; for MFC: read-out: C. albicans MFC
[7] = system: A. fumigatus; assay: Antimicrobial serial tube dilution, MIC and MFC; type: cell-based, Aspergillus fumigatus MTCC 2584; conditions: Aspergillus fumigatus; for MIC: 168 h, read-out: A. fumigatus MIC; for MFC: read-out: A. fumigatus MFC
[8] = DPPH scavenging antioxidant assay
[9] = system: A549 human lung cancer cell line; assay: MTT cytotoxicity assay, A549; type: cell-based; conditions: Homo sapiens, A549; MTT, 48 h
Description: (§1) The cell lines employed in the investigation were purchased from the National Centre for Cell Sciences (NCCS), Pune, India. The cell lines were cultured in DMEM fortified with 10% FBS, L-glutamine, sodium bicarbonate, and solution of antibiotics (streptomycin 100 μg ml^−1 + penicillin-100 U ml^−1). The culture of cell lines was stored under 5% CO2 incubation at 37 °C.
(§2) The compounds showing maximum activity (antimicrobial and antioxidant potential) were screened for cytotoxicity against A549 and HEK cell lines using MTT assay. Initially, 96-well microculture plate was seeded with 1 × 10^4 cells in 100 µl/well DMEM/MEM, supplemented with 10% FBS followed by incubation at a temperature of 37 °C for a period of 24 h under 5% CO2 atmosphere. After that, the test compounds and camptothecin were added to the cells to achieve a concentration of 10, 25, 50 and 100 µg. MTT reagent (10 µl) of concentration of 5 mg ml^−1 added to all the wells after the duration of 48 h. The plate was incubated further for 4 h followed by careful removal of supernatant from each well. To dissolve the formazan crystals, 100 µl of DMSO was added, and the ELISA reader was used to check the absorbance at 570 nm wavelength. In order to calculate the IC50 concentration, the following equation, i.e. A = Bx + C, was used. In this case, A = 50, while the values B and C values were obtained from the survival curve plot. This study was carried out in duplicate.

[10] = system: HEK human embryonic kidney cells; assay: MTT cytotoxicity assay, HEK; type: cell-based; conditions: 48 h
Description: as §1, §2

[11] = system: tested bacterial strains; assay: Antimicrobial serial tube dilution, ranges over several bacterial strains; type: cell-based; conditions: over tested bacterial strains
Description: The synthesized diazenyl chalcones (C18 to C27) and controls (dyes A and E, and chalcone) were assessed for their antimicrobial activity by estimation of MIC and MBC/MFC values. […] The stock solutions of the test compounds and standard drugs having a concentration of 1000 µg ml^−1 were prepared by dissolving the used compounds in DMSO. The nutrient broth/Sabouraud dextrose broth was used for the serial dilution of the test compounds and referenced drugs for bacterial and fungal cultures, respectively. […] The size of the final inoculum in each test tube was taken as 5 × 10^5 CFU ml^−1. The incubation of the test and standard compounds of varying concentrations was done for 24 h at 37 ± 2 °C (bacterial culture) and for 48 h at 37 ± 2 °C (C. albicans) and for 7 d at 25 ± 2 °C (A. fumigatus). The diazenyl chalcones (C18–C27), were further evaluated for their bactericidal/fungicidal activity by estimation of MBC/MFC values. […] For proper mixing of culture media, the plates were shaken gently followed by incubation at the predefined temperature and time as stated earlier, followed by the visual inspection of the plates for signs of microbial growth.

Row | Structure (SMILES) | MIC [1] | MBC [1] | MIC [2] | MBC [2] | MIC [3] | MBC [3] | MIC [4] | MBC [4] | MIC [5] | MBC [5] | MIC [6] | MFC [6] | MIC [7] | MFC [7] | IC50 DPPH [8] | % inhibition of DPPH ([8]; 1.56 µg ml^−1) | % inhibition of DPPH ([8]; 3.12 µg ml^−1) | % inhibition of DPPH ([8]; 6.25 µg ml^−1) | % inhibition of DPPH ([8]; 12.5 µg ml^−1) | % inhibition of DPPH ([8]; 25 µg ml^−1) | other results
1 | O=C(/C=C\c1cc(Br)ccc1O)c1ccc(N=Nc2ccc([N+](=O)[O-])cc2Cl)c(O)c1 [Compound C-22, (2Z)-3-(5-Bromo-2-hydroxyphenyl)-1-(4-((2-chloro-4-nitrophenyl)diazenyl)-3-hydroxyphenyl) prop-2-en-1-one] | 3.9 µg/mL (≈ 7.76 µM) | 3.9 µg/mL (≈ 7.76 µM) | 3.9 µg/mL (≈ 7.76 µM) | 7.81 µg/mL (≈ 15.5 µM) | 1.95 µg/mL (≈ 3.88 µM) | 7.81 µg/mL (≈ 15.5 µM) | 3.9 µg/mL (≈ 7.76 µM) | 31.2 µg/mL (≈ 62.2 µM) | 1.95 µg/mL (≈ 3.88 µM) | 7.81 µg/mL (≈ 15.5 µM) | 31.2 µg/mL (≈ 62.2 µM) | 31.2 µg/mL (≈ 62.2 µM) | 62.5 µg/mL (≈ 124 µM) | 125 µg/mL (≈ 249 µM) | > 100 µg/mL | 8.25% | 9.26% | 10.25% | 11.79% | 14.15% | % inhibition of DPPH ([8]; 50 µg ml^−1): 16.34%; % inhibition of DPPH ([8]; 100 µg ml^−1): 23.27%; IC50 [9]: 156.4 ± 1.23 µg/mL (≈ 311 µM); IC50 [10]: 296.4 ± 2.32 µg/mL (≈ 590 µM); MBC range [11]: 3.90 to 7.81 µg/mL; MIC range [11]: 1.95 to 3.90 µg/mL; melting point: 160 to 162 °C
2 | COc1ccccc1/C=C\C(=O)c1ccc(N=Nc2c(O)cccc2O)cc1 [Compound C-27, (2Z)-1-(4-((2,6-Dihydroxyphenyl)diazenyl)phenyl)-3-(2-methoxyphenyl)prop-2-en-1-one] | 125 µg/mL (≈ 334 µM) | 125 µg/mL (≈ 334 µM) | 62.5 µg/mL (≈ 167 µM) | 62.5 µg/mL (≈ 167 µM) | 7.81 to 15.6 µg/mL (≈ 20.9 to 41.7 µM) | 15.6 µg/mL (≈ 41.7 µM) | 62.5 µg/mL (≈ 167 µM) | 62.5 µg/mL (≈ 167 µM) | 15.6 µg/mL (≈ 41.7 µM) | 31.2 µg/mL (≈ 83.5 µM) | 62.5 µg/mL (≈ 167 µM) | 62.5 µg/mL (≈ 167 µM) | 125 µg/mL (≈ 334 µM) | 125 µg/mL (≈ 334 µM) | 7.112 µg/mL and 7.12 µg/mL | 26.13% | 34.18% | 54.67% | 82.21% | 93.45% | E. coli MIC ([3]; 24 h at 37 ± 2 °C): 7.81 µg/mL; % inhibition of DPPH ([8]; 50 µg ml^−1): 95.71%; % inhibition of DPPH ([8]; 100 µg ml^−1): 96.62%; log IC50 DPPH ([8]; Fig. 1): 0.8520; IC50 [9]: 124 ± 2.56 µg/mL (≈ 330 µM); IC50 [10]: 330.6 ± 2.9 µg/mL (≈ 883 µM); melting point: 320 to 322 °C
